# Measurements reported in US5679701A (priority 1996, dated 1997).
# Several values for one entry are separate records, joined by “and”; a condition that tells them apart may be missing. Equal entries are not always repeated. Entries after “also recorded” stand apart in the source; their conditions may differ. Where two headings read alike, the source gives them in different places.
# Key:
# [1] = target: T1, Sarcoplasmic Reticular Ca^++ -Release Channel (ryanodine receptor) (Oryctolagus cuniculus, UniProt P11716); details: Table II; footnote * J. MED. CHEM. 30 710 (1987); cited from earlier work
# T1 construct: skeletal sarcoplasmic reticulum membrane vesicles; from tissue; host or cells: skeletal muscle sarcoplasmic reticulum membrane vesicles
# T1 sequence (P11716 whole entry): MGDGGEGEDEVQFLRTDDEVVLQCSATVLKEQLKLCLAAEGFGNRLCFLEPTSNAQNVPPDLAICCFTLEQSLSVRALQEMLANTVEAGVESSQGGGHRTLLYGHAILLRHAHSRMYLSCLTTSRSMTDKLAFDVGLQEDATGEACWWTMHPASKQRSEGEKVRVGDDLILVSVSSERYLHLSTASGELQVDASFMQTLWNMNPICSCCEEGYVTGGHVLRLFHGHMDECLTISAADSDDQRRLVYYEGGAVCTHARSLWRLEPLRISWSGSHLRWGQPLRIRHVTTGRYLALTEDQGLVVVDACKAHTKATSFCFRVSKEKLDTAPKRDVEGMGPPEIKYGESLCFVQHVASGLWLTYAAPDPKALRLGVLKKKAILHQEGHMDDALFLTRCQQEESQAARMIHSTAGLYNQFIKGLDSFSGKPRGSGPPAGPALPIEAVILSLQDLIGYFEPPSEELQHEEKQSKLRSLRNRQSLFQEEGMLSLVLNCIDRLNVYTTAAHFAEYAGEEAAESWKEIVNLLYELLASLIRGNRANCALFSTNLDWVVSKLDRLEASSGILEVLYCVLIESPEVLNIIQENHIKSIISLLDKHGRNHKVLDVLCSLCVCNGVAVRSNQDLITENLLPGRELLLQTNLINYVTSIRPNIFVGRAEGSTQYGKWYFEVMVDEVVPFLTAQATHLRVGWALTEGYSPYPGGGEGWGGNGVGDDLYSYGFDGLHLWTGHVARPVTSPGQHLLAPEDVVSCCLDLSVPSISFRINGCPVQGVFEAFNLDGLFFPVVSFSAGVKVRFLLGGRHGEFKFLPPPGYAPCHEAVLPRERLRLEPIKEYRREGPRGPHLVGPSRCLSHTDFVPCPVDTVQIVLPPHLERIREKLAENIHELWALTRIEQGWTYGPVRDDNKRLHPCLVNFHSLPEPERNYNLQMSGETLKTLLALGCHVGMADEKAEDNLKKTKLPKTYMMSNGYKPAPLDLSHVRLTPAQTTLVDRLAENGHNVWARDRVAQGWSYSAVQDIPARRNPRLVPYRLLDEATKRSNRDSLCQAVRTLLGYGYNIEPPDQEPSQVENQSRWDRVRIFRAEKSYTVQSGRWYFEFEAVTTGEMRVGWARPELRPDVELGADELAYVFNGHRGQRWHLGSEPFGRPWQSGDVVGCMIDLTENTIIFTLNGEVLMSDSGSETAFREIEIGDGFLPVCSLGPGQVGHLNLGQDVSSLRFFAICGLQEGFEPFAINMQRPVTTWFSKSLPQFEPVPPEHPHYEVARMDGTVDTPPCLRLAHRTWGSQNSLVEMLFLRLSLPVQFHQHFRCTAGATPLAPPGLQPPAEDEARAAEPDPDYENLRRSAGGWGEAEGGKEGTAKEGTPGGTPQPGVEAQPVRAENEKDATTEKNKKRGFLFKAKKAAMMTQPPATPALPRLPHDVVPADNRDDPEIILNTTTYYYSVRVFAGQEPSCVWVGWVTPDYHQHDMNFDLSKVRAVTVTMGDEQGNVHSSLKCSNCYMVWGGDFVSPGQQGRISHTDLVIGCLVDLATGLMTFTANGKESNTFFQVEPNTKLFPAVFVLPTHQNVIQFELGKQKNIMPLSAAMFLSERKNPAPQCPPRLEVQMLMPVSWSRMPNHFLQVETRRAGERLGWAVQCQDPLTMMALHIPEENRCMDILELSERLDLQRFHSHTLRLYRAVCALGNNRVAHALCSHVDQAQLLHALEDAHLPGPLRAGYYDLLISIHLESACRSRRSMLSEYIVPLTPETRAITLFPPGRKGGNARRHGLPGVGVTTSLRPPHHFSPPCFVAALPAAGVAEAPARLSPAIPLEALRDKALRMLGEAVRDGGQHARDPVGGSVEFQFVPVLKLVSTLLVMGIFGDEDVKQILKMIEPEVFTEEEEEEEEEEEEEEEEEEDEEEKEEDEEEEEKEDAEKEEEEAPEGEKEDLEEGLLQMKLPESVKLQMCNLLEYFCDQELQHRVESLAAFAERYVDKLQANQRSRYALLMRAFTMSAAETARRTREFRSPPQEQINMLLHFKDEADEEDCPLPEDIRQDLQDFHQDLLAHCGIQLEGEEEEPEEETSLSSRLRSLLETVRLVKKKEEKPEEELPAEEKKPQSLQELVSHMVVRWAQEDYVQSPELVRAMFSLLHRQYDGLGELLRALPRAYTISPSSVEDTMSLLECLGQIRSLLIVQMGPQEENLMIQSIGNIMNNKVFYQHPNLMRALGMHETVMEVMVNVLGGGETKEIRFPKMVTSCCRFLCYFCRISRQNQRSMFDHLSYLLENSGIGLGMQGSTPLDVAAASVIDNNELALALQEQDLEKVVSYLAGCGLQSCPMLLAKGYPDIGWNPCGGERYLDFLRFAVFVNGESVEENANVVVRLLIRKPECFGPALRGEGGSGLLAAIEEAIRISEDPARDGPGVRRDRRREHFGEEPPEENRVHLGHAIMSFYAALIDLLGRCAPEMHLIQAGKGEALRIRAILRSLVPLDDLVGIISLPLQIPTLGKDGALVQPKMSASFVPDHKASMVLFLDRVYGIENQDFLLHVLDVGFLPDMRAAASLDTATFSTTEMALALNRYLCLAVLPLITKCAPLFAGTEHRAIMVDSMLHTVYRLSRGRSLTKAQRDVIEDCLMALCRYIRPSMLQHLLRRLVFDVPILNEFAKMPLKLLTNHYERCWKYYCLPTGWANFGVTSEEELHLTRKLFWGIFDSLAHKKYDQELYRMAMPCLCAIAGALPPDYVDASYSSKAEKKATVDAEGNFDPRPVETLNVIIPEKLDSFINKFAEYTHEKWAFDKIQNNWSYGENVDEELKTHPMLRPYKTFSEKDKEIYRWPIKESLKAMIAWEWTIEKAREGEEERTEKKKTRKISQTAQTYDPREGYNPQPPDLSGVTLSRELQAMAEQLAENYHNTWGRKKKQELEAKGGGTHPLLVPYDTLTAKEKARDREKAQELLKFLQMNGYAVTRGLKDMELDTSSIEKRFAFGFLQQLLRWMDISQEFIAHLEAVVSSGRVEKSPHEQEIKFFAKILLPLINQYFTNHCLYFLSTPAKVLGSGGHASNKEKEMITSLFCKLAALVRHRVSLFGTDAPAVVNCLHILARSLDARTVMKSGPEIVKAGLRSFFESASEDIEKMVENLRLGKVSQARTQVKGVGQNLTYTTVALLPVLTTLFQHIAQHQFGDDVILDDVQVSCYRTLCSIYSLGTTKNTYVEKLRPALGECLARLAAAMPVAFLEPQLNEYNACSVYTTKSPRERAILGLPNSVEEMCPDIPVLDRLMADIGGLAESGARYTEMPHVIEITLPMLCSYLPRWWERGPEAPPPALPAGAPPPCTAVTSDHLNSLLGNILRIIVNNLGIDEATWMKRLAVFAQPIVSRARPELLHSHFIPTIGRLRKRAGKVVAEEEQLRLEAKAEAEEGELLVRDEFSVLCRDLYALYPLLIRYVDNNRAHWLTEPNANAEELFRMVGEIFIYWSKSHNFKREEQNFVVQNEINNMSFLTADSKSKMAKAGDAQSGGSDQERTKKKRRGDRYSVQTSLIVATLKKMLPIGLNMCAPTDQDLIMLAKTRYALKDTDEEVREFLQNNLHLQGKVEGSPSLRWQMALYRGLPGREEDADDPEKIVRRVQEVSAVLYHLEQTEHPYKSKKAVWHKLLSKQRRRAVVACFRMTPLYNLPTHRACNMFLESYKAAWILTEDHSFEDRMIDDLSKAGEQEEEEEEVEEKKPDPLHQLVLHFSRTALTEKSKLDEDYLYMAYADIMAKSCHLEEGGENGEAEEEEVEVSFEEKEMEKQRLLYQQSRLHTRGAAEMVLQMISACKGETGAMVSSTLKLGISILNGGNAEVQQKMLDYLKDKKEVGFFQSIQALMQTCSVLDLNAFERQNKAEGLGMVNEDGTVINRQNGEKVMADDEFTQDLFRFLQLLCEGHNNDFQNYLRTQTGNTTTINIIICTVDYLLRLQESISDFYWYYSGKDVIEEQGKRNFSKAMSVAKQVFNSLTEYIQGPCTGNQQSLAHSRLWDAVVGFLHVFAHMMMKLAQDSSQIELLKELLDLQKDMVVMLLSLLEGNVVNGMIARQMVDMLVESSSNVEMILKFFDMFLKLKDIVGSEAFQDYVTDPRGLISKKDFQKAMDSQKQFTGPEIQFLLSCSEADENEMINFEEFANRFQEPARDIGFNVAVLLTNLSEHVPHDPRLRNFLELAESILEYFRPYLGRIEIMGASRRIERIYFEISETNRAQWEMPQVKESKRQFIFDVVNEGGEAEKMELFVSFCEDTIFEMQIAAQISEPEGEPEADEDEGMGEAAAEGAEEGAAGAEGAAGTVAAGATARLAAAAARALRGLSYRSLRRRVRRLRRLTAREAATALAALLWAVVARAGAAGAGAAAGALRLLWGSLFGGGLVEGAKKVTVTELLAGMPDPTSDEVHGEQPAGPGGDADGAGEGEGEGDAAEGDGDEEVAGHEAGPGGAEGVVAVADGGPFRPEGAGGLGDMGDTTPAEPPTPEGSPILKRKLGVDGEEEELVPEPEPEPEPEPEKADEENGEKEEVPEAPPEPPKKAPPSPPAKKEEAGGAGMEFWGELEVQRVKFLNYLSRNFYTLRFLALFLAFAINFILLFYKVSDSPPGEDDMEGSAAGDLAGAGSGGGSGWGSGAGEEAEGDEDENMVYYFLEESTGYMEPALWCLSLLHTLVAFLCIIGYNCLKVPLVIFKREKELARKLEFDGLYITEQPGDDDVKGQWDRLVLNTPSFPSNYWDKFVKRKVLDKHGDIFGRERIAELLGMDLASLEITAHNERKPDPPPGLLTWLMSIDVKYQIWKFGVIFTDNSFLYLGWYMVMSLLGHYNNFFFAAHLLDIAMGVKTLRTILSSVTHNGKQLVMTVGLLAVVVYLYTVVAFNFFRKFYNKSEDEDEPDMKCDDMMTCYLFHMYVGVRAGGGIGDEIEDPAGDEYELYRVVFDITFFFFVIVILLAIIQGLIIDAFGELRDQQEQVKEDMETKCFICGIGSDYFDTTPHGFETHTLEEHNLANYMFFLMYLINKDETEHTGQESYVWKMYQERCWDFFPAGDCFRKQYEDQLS
# [2] = target: T2, ryanodine receptor (skeletal sarcoplasmic reticulum membrane vesicles) (Oryctolagus cuniculus, UniProt P11716); assay: biochemical; type: binding
# T2 construct: skeletal sarcoplasmic reticulum membrane vesicles; from tissue; host or cells: skeletal muscle sarcoplasmic reticulum membrane vesicles
# T2 sequence (P11716 whole entry): as above
# [3] = target: SR Ca^2+ release channel (junctional SR vesicles from rabbit skeletal muscle) (Oryctolagus cuniculus, UniProt P11716); assay: biochemical; type: biochemical; details: for closing (deactivation) of the SR CRC (in words): higher concentrations, up to 1 mM for V-II, XXI preliminary; for pharmacological profile (in words): vs biphasic profile of ryanodine
# Sequence of SR Ca^2+ release channel (junctional SR vesicles from rabbit skeletal muscle) (P11716 whole entry): as above
# Method: Briefly, junctional SR vesicles from rabbit skeletal muscle were passively loaded with. ^45 Ca^2+ in the presence and absence of the esters. Ca^2+ -efflux was then initiated by diluting the vesicles 100-fold into a low Ca^2+ -concentration. ^45 Ca^2+ remaining in the vesicles was determined after a 3 sec. efflux period by termination and filtration of the vesicles followed by liquid scintillation counting.
# [4] = tested on: SR Ca^++ release channel/ryanodine receptor (cardiac and skeletal muscle vesicles); type: biochemical
# [5] = tested on: mammalian skeletal muscle; details: cited from earlier work
# [6] = tested on: mammalian cardiac muscle; details: cited from earlier work
# [7] = tested on: skeletal muscle sarcoplasmic reticulum (SR); details: cited from earlier work
# [8] = target: T1, Sarcoplasmic Reticular Ca^++ -Release Channel (ryanodine receptor); assay: biochemical; type: binding; details: for relative binding affinity compared with ryanodine (in words): vs ryanodine
# [9] = first embodiment, read-out: IC50
# [10] = 45Ca2+ efflux, skeletal SR vesicles
# [11] = I, NMDS: concentrations as high as 300 μM, ryanodine, dehydroryanodine: >μM
# [12] = ryanodine, dehydroryanodine: low concentrations (<μM)
# [13] = Table II, more highly purified standards, read-out: IC50 (nM) ± S.D.
# [14] = Table I, displacement of 6.7 nM [3H]ryanodine, mean ± standard deviation of replicates, read-out: IC50
# [15] = Table I, mean ± standard deviation of replicates, read-out: KD
structure (smiles),measurement,setting,value
"CC1=C(C(C)C)[C@@H](OC(=O)c2ccc[nH]2)[C@@]2(O)[C@@]3(C)CC(=O)O[C@@]4([C@H](O)[C@@H](C)CC[C@]34O)[C@@]12O [Anhydro-Ryanodine, reference compound]",IC50,[1],> 1000 nM
same,IC50,[2]; [9],> 1000 nM
same,Kd,"[2]; first embodiment, read-out: KD",> 350 nM
"CC1CCC2(O)C3(C)CC4(O)OC2(C1O)C1(O)C3(O)C(OC(=O)c2ccc[nH]2)C(O)(C(C)C)C41C (stereo not drawn) [Ryanodine, ryanodine]",opening (activation) of the SR CRC (in words),[3],activates the SR CRC at low μM concentrations; also recorded: induces full opening of the SR CRC
same,concentration inducing deactivation of the channel,[3]; [10],higher than 30 μM
same,concentration of maximal channel activation,[3]; [10],about 30 μM
same,closing of the SR Ca^++ release channel (in words),[4]; [11],closes or inactivates the SR Ca^++ release channels; also recorded: inhibits Ca^++ flux by inactivating or closing the channel; also recorded: the channel is closed
same,opening of the SR Ca^++ release channel (in words),[4]; [12],opens the SR Ca^++ release channel/ryanodine receptor
same,opening of the SR Ca^++ release channel (in words),"[4]; ryanodine, dehydroryanodine: low concentrations (<μM), listed as ryanodine",enhances Ca^++ flux across the SR membrane by opening the SR Ca^++ release channel; also recorded: the Ca^++ release channel is opened
same,effect on mammalian skeletal muscle (in words),[5],irreversible contracture
same,effect on mammalian cardiac muscle (in words),[6],negative inotropic effect
same,effect on active uptake of Ca^++ by skeletal muscle SR (in words),[7],obstruct active uptake
"CC1CCC2(O)C3(C)CC4(O)OC2(C1OC(=O)CCNC(=O)CCNC(=O)c1cc(I)c(N=[N+]=[N-])cc1O)C1(O)C3(O)C(OC(=O)c2ccc[nH]2)C(O)(C(C)C)C41C (stereo not drawn) [XXXI, O10eq N-(4-azido-5-^125 Iodosalicyloyl)-β-alanyl-β-alanyl ryanodine]",deactivation of the CRC in calcium flux experiments (in words),"[3]; concentrations greater than 1 mM, non-radioactive compound",does not deactivate the CRC
same,IC50,"[2]; non-radioactive compound, read-out: IC50",25.1 ± 2.5 nM
"CC1CCC2(O)C3(C)CC4(O)OC2(C1OC(=O)CCNC(=N)N)C1(O)C3(O)C(OC(=O)c2ccc[nH]2)C(O)(C(C)C)C41C (stereo not drawn) [XXI, O10eq -β-Guanidinopropionyl-Ryanodine]",opening (activation) of the SR CRC (in words),[3],appears to be purely an activator of the SR CRC
same,closing (deactivation) of the SR CRC (in words),[3],entirely lack the ability of ryanodine to close the SR CRC
same,pharmacological profile (in words),[3],"altered--unidirectional--pharmacological profile, differing from the biphasic profile of ryanodine"
same,IC50,[8]; [13],1.1 ± 0.1 nM
same,relative binding affinity compared with ryanodine (in words),[8],about six times greater than that of ryanodine
same,relative binding affinity compared with ryanodine (in words),[8]; listed as O10eq -β-guanidinopropyl-ryanodine,high binding affinity
"CC1CCC2(O)C3(C)CC4(O)OC2(C1OC(=O)CNC(=O)OCc1ccccc1)C1(O)C3(O)C(OC(=O)c2ccc[nH]2)C(O)(C(C)C)C41C (stereo not drawn) [I, O10eq-[(N'Carbobenzyloxy)-Glycyl]-Ryanodine]",relative binding affinity compared with ryanodine (in words),[8],slightly enhanced affinity
same,IC50,[2]; [14],22.3 ± 7.3 nM
same,Kd,[2]; [15],6.6 ± 2 nM
same,closing of the SR Ca^++ release channel (in words),[4],neither XVII(NMDS) nor CBZ-glycyl-ryanodine (I) exhibits significant ability to close the channel
same,opening of the SR Ca^++ release channel (in words),[4],"only slightly less active than ryanodine for opening the channel; also recorded: same selective activity of only opening this channel, albeit at higher dose levels"
same,potency and selectivity comparison (in words),[4]; I vs XVIII (NMDS),more potent and more selective than XVIII(NMDS)
"C=C1CCC2(O)C3(C)CC4(O)OC2(C1OC(=O)CCN)C1(O)C3(O)C(OC(=O)c2ccc[nH]2)C(O)(C(C)C)C41C (stereo not drawn) [XXVI, O10eq -β-Alanyl-Dehydroryanodine]",IC50,[8]; [13],3.36 nM
"CC1CCC2(O)C3(C)CC4(O)OC2(C1OC(=O)CNC(=NC(=O)OCc1ccccc1)NC(=O)OCc1ccccc1)C1(O)C3(O)C(OC(=O)c2ccc[nH]2)C(O)(C(C)C)C41C (stereo not drawn) [XXIII, O10eq -N,N'-bis-(Cbz)-guanidinoacetyl-ryanodine]",lessened affinity compared with ryanodine,[8],7-20 fold
same,IC50,[8]; IC50 (nM) ± S.D.,136 nM
"C=C1CCC2(O)C3(C)CC4(O)OC2(C1OC(=O)CCC(=O)NC)C1(O)C3(O)C(OC(=O)c2ccc[nH]2)C(O)(C(C)C)C41C (stereo not drawn) [XVIII, N-Methyl-Dehydroryanodine-Succinamidate]",IC50,[2]; IC50 (nM),49.4 ± 10.6 nM
same,Kd,[2]; [15],19.9 ± 5.8 nM
same,closing of the SR Ca^++ release channel (in words),[4],neither XVII(NMDS) nor CBZ-glycyl-ryanodine (I) exhibits significant ability to close the channel
same,opening of the SR Ca^++ release channel (in words),[4],only slightly less active than ryanodine for opening the channel
"CC1CCC2(O)C3(C)CC4(O)OC2(C1OC(=O)CCNC(=O)OCc1ccccc1)C1(O)C3(O)C(OC(=O)c2ccc[nH]2)C(O)(C(C)C)C41C (stereo not drawn) [IV, O10eq. -Carbobenzyloxy-β-alanyl-ryanodine]",IC50,"[8]; Table I value multiplied by 6.2/11.9=0.52, read-out: adjusted IC50 value",6.4 nM
same,IC50,"[8]; second embodiment, read-out: IC50",5.9 nM
same,relative binding affinity compared with ryanodine (in words),[8],slightly enhanced affinity
same,IC50,[2]; [14],12.3 ± 1 nM
same,Kd,[2]; [15],4 ± 0.2 nM
same,IC50,"[2]; restated for adjustment, read-out: IC50 value (Table I value as restated in text)",12.3 nM
same,opening of the SR Ca^++ release channel (in words),[4],"same selective activity of only opening this channel, albeit at higher dose levels"
"CC1CCC2(O)C3(C)CC4(O)OC2(C1OC(=O)CCN)C1(O)C3(O)C(OC(=O)c2ccc[nH]2)C(O)(C(C)C)C41C (stereo not drawn) [V-II, O10eq -β-Alanyl-Ryanodine]",opening (activation) of the SR CRC (in words),[3],induces full opening of the SR CRC
same,EC (maximal activation),"[3]; 3 s, 45Ca2+ efflux, skeletal SR vesicles, read-out: concentration of maximal channel activation",10 µM
same,closing (deactivation) of the SR CRC (in words),[3],none of the closing action seen with high concentrations of ryanodine
same,shift of activation curve relative to ryanodine,[3]; towards lower concentrations,three-fold
same,pharmacological profile (in words),[3],"altered--unidirectional--pharmacological profile, differing from the biphasic profile of ryanodine"
same,relative binding affinity compared with ryanodine (in words),[8],two to three-fold greater RBA
same,binding affinity for the ryanodine receptor (in words),[2],approximately four-fold higher affinity
same,Kd,[2]; [15],1 ± 0.3 nM
same,IC50,"[2]; V-II from direct preparation by hydrogenolysis of IV in presence of triethylamine, read-out: IC50",4.3 nM
same,IC50,[2]; [9],2.8 ± 0.8 nM
same,Kd,"[2]; first embodiment, read-out: KD",1 nM
same,binding affinity to the ryanodine receptor relative to ryanodine (times stronger/greater),[2]; vs ryanodine,3.5-4 times and 4 times
same,opening of the SR Ca^++ release channel (in words),[4],exhibits only the ability to enhance Ca^++ flux by opening the SR Ca^++ channel
"C=C1CCC2(O)C3(C)CC4(O)OC2(C1O)C1(O)C3(O)C(OC(=O)c2ccc[nH]2)C(O)(C(C)C)C41C (stereo not drawn) [Dehydroryanodine, dehydroryanodine]",IC50,[2],16.1 ± 4.1 nM
same,Kd,[2],5.4 ± 0.1 nM
same,closing of the SR Ca^++ release channel (in words),[4]; [11],the channel is closed
same,opening of the SR Ca^++ release channel (in words),[4]; [12],opens the SR Ca^++ release channel/ryanodine receptor; also recorded: the Ca^++ release channel is opened
